Measured values reported in PubChem BioAssay (NCI).
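Exposure lasted 48 hours, with cells grown in 96-well plates and compounds tested at five concentrations. GI50 marks 50% less growth. At the TGI there is no net growth.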

Assays:
Assay in all cases: inhibition of tumour cell growth, NCI panel, 48 h
786-0 renal = system: 786-0 renal
A498 renal = system: A498 renal
A549 NSCLC = system: A549 NSCLC
BT-549 breast = system: BT-549 breast
CAKI-1 renal = system: CAKI-1 renal
CCRF-CEM leukemia = system: CCRF-CEM leukemia
COLO 205 colon = system: COLO 205 colon
DU-145 prostate = system: DU-145 prostate
EKVX NSCLC = system: EKVX NSCLC
HCT-116 colon = system: HCT-116 colon
HCT-15 colon = system: HCT-15 colon
HL-60(TB) leukemia = system: HL-60(TB) leukemia
HOP-62 NSCLC = system: HOP-62 NSCLC
HS 578T breast = system: HS 578T breast
HT29 colon = system: HT29 colon
IGROV1 ovarian = system: IGROV1 ovarian
K-562 leukemia = system: K-562 leukemia
KM12 colon = system: KM12 colon
LOX IMVI melanoma = system: LOX IMVI melanoma
M14 melanoma = system: M14 melanoma
MCF7 breast = system: MCF7 breast
MDA-MB-435 = system: MDA-MB-435
MOLT-4 leukemia = system: MOLT-4 leukemia
NCI-H460 lung = system: NCI-H460 lung
NCI-H522 lung = system: NCI-H522 lung
NCI/ADR-RES ovarian = system: NCI/ADR-RES ovarian
OVCAR-3 ovarian = system: OVCAR-3 ovarian
OVCAR-4 ovarian = system: OVCAR-4 ovarian
OVCAR-5 ovarian = system: OVCAR-5 ovarian
OVCAR-8 ovarian = system: OVCAR-8 ovarian
PC-3 prostate = system: PC-3 prostate
RPMI-8226 leukemia = system: RPMI-8226 leukemia
RXF 393 renal = system: RXF 393 renal
SF-268 CNS = system: SF-268 CNS
SF-295 CNS = system: SF-295 CNS
SF-539 CNS = system: SF-539 CNS
SK-MEL-2 melanoma = system: SK-MEL-2 melanoma
SK-MEL-28 melanoma = system: SK-MEL-28 melanoma
SK-MEL-5 melanoma = system: SK-MEL-5 melanoma
SK-OV-3 ovarian = system: SK-OV-3 ovarian
SN12C renal = system: SN12C renal
SNB-19 CNS = system: SNB-19 CNS
SNB-75 CNS = system: SNB-75 CNS
SR leukemia = system: SR leukemia
SW-620 colon = system: SW-620 colon
T-47D breast = system: T-47D breast
TK-10 renal = system: TK-10 renal
U251 CNS = system: U251 CNS
UACC-257 melanoma = system: UACC-257 melanoma
UACC-62 melanoma = system: UACC-62 melanoma
UO-31 renal = system: UO-31 renal
ACHN renal = system: ACHN renal
HCC-2998 colon = system: HCC-2998 colon
HOP-92 NSCLC = system: HOP-92 NSCLC
MDA-MB-231 breast = system: MDA-MB-231 breast
NCI-H226 lung = system: NCI-H226 lung
NCI-H23 lung = system: NCI-H23 lung

SMILES: Cc1ccnc(NC(=S)Nc2cccc(Cl)c2)c1
- TGI (786-0 renal): > 100 µM
- TGI (A498 renal): > 100 µM
- TGI (A549 NSCLC): > 100 µM
- TGI (BT-549 breast): > 100 µM
- TGI (CAKI-1 renal): > 100 µM
- TGI (CCRF-CEM leukemia): > 100 µM
- TGI (COLO 205 colon): > 100 µM
- TGI (DU-145 prostate): > 100 µM
- TGI (EKVX NSCLC): > 100 µM
- TGI (HCT-116 colon): > 100 µM
- TGI (HCT-15 colon): > 100 µM
- TGI (HL-60(TB) leukemia): > 100 µM
- TGI (HOP-62 NSCLC): > 100 µM
- TGI (HS 578T breast): > 100 µM
- TGI (HT29 colon): > 100 µM
- TGI (IGROV1 ovarian): > 100 µM
- TGI (K-562 leukemia): > 100 µM
- TGI (KM12 colon): > 100 µM
- TGI (LOX IMVI melanoma): > 100 µM
- TGI (M14 melanoma): > 100 µM
- TGI (MCF7 breast): > 100 µM
- TGI (MDA-MB-435): > 100 µM
- TGI (MOLT-4 leukemia): > 100 µM
- TGI (NCI-H460 lung): > 100 µM
- TGI (NCI-H522 lung): 9.85 µM
- TGI (NCI/ADR-RES ovarian): > 100 µM
- TGI (OVCAR-3 ovarian): > 100 µM
- TGI (OVCAR-4 ovarian): > 100 µM
- TGI (OVCAR-5 ovarian): > 100 µM
- TGI (OVCAR-8 ovarian): > 100 µM
- TGI (PC-3 prostate): > 100 µM
- TGI (RPMI-8226 leukemia): > 100 µM
- TGI (RXF 393 renal): > 100 µM
- TGI (SF-268 CNS): > 100 µM
- TGI (SF-295 CNS): > 100 µM
- TGI (SF-539 CNS): > 100 µM
- TGI (SK-MEL-2 melanoma): > 100 µM
- TGI (SK-MEL-28 melanoma): > 100 µM
- TGI (SK-MEL-5 melanoma): > 100 µM
- TGI (SK-OV-3 ovarian): > 100 µM
- TGI (SN12C renal): > 100 µM
- TGI (SNB-19 CNS): > 100 µM
- TGI (SNB-75 CNS): > 100 µM
- TGI (SR leukemia): > 100 µM
- TGI (SW-620 colon): > 100 µM
- TGI (T-47D breast): > 100 µM
- TGI (TK-10 renal): > 100 µM
- TGI (U251 CNS): > 100 µM
- TGI (UACC-257 melanoma): > 100 µM
- TGI (UACC-62 melanoma): > 100 µM
- TGI (UO-31 renal): > 100 µM

SMILES: COc1cccc(C2C(C#N)=C(N)Oc3c2ccc2ccccc32)c1 (stereo not given)
- GI50 (786-0 renal): 0.0364 µM
- TGI (786-0 renal): 12.3 µM
- GI50 (A498 renal): 0.0108 µM
- TGI (A498 renal): 13.6 µM
- GI50 (A549 NSCLC): 0.0232 µM
- TGI (A549 NSCLC): 17.6 µM
- GI50 (ACHN renal): < 0.01 µM
- TGI (ACHN renal): 13.4 µM
- GI50 (BT-549 breast): 0.029 µM
- TGI (BT-549 breast): 12.1 µM
- GI50 (CAKI-1 renal): < 0.01 µM
- TGI (CAKI-1 renal): 14 µM
- GI50 (CCRF-CEM leukemia): 0.0353 µM
- TGI (CCRF-CEM leukemia): 18.2 µM
- GI50 (COLO 205 colon): 0.132 µM
- TGI (COLO 205 colon): 0.639 µM
- GI50 (DU-145 prostate): 0.034 µM
- TGI (DU-145 prostate): 1.43 µM
- GI50 (EKVX NSCLC): 0.0617 µM
- TGI (EKVX NSCLC): 19.6 µM
- GI50 (HCC-2998 colon): 0.0355 µM
- TGI (HCC-2998 colon): 1.1 µM
- GI50 (HCT-116 colon): < 0.0128 µM
- TGI (HCT-116 colon): 3.42 µM
- GI50 (HCT-15 colon): < 0.01 µM
- TGI (HCT-15 colon): 10.2 µM
- GI50 (HL-60(TB) leukemia): 0.0244 µM
- TGI (HL-60(TB) leukemia): 0.0629 µM
- GI50 (HOP-62 NSCLC): 0.0203 µM
- TGI (HOP-62 NSCLC): 16.2 µM
- GI50 (HOP-92 NSCLC): < 0.0271 µM
- TGI (HOP-92 NSCLC): 7.78 µM
- GI50 (HS 578T breast): < 0.0133 µM
- TGI (HS 578T breast): 15.1 µM
- GI50 (HT29 colon): 0.0926 µM
- TGI (HT29 colon): 4.71 µM
- GI50 (IGROV1 ovarian): 0.0205 µM
- TGI (IGROV1 ovarian): 14.3 µM
- GI50 (K-562 leukemia): < 0.01 µM
- TGI (K-562 leukemia): > 44 µM
- GI50 (KM12 colon): < 0.0116 µM
- TGI (KM12 colon): 2.26 µM
- GI50 (LOX IMVI melanoma): < 0.0164 µM
- TGI (LOX IMVI melanoma): 10.8 µM
- GI50 (M14 melanoma): < 0.012 µM
- TGI (M14 melanoma): 13.3 µM
- GI50 (MCF7 breast): < 0.01 µM
- TGI (MCF7 breast): 12.8 µM
- GI50 (MDA-MB-231 breast): 0.0433 µM
- TGI (MDA-MB-231 breast): 16.3 µM
- GI50 (MDA-MB-435): < 0.01 µM
- GI50 (MOLT-4 leukemia): 0.0409 µM
- TGI (MOLT-4 leukemia): 17.8 µM
- GI50 (NCI-H226 lung): 0.0208 µM
- TGI (NCI-H226 lung): 1 µM
- GI50 (NCI-H23 lung): 0.026 µM
- TGI (NCI-H23 lung): 6.74 µM
- GI50 (NCI-H460 lung): 0.0246 µM
- TGI (NCI-H460 lung): 1.18 µM
- GI50 (NCI-H522 lung): < 0.01 µM
- GI50 (NCI/ADR-RES ovarian): < 0.01 µM
- TGI (NCI/ADR-RES ovarian): 0.391 µM
- GI50 (OVCAR-3 ovarian): < 0.0144 µM
- TGI (OVCAR-3 ovarian): 0.0439 µM
- TGI (OVCAR-4 ovarian): 18.6 µM
- GI50 (OVCAR-5 ovarian): 0.0801 µM
- TGI (OVCAR-5 ovarian): 19.8 µM
- GI50 (OVCAR-8 ovarian): 0.0346 µM
- TGI (OVCAR-8 ovarian): 19.2 µM
- GI50 (PC-3 prostate): 0.0119 µM
- TGI (PC-3 prostate): 15.5 µM
- GI50 (RPMI-8226 leukemia): < 0.019 µM
- TGI (RPMI-8226 leukemia): 3.22 µM
- GI50 (RXF 393 renal): < 0.0161 µM
- TGI (RXF 393 renal): 0.975 µM
- GI50 (SF-268 CNS): 0.0315 µM
- TGI (SF-268 CNS): 10.5 µM
- GI50 (SF-295 CNS): < 0.01 µM
- TGI (SF-295 CNS): 10.7 µM
- GI50 (SF-539 CNS): 0.0166 µM
- TGI (SF-539 CNS): 0.0695 µM
- GI50 (SK-MEL-2 melanoma): 0.0588 µM
- TGI (SK-MEL-2 melanoma): 16.5 µM
- GI50 (SK-MEL-28 melanoma): 2.31 µM
- TGI (SK-MEL-28 melanoma): 24.5 µM
- GI50 (SK-MEL-5 melanoma): < 0.0185 µM
- TGI (SK-MEL-5 melanoma): 0.108 µM
- GI50 (SK-OV-3 ovarian): 0.0431 µM
- TGI (SK-OV-3 ovarian): 18.3 µM
- GI50 (SN12C renal): 0.0406 µM
- TGI (SN12C renal): 13.5 µM
- GI50 (SNB-19 CNS): 0.0322 µM
- TGI (SNB-19 CNS): 20.5 µM
- GI50 (SNB-75 CNS): < 0.0151 µM
- TGI (SNB-75 CNS): 15.1 µM
- GI50 (SR leukemia): < 0.01 µM
- TGI (SR leukemia): > 66.7 µM
- GI50 (SW-620 colon): < 0.015 µM
- TGI (SW-620 colon): 17.8 µM
- GI50 (TK-10 renal): 5.71 µM
- TGI (TK-10 renal): 27.3 µM
- GI50 (U251 CNS): 0.0213 µM
- TGI (U251 CNS): 11.1 µM
- GI50 (UACC-257 melanoma): 0.901 µM
- TGI (UACC-257 melanoma): 32.8 µM
- GI50 (UACC-62 melanoma): < 0.01 µM
- TGI (UACC-62 melanoma): 19.8 µM
- GI50 (UO-31 renal): 0.054 µM
- TGI (UO-31 renal): 14.3 µM
